Measured values taken from patent US20230011869A1 (Hoffmann-La Roche Inc., priority 2018, published 2023).
Counter-ions that a name gives are not always drawn.

System: Acinetobacter baumannii ATCC17978
Test: Antimicrobial susceptibility testing: 90% growth inhibitory concentration (IC90) determination, Iso-Sensitest broth
Format: cell-based
Conditions: 90% growth inhibitory concentration, Acinetobacter baumannii ATCC17978, Iso-Sensitest broth, OD 600 nm over 16 h; read-out: ATCC17978 IC90
Protocol: Antimicrobial Susceptibility Testing:
90% Growth Inhibitory Concentration (IC90) Determination
The in vitro antimicrobial activity of the compounds was determined according to the following procedure:
The assay used a 10-points Iso-Sensitest broth medium to measure quantitatively the in vitro activity of the compounds against Acinetobacter baumannii ATCC17978 and Acinetobacter baumannii ATCC17961.
Microtiter plates were incubated at 35±2° C.
Bacterial cell growth was determined with the measurement of optical density at λ=600 nm each 20 minutes over a time course of 16 h. Growth inhibition was calculated during the logarithmic growth of the bacterial cells with determination of the concentration inhibiting 50% (IC50) and 90% (IC90) of the growth.

Row | Compound | IC90 [nM]
1 | 1-[4-[[3-[4-(cyanomethoxy)-2,3-difluoro-phenyl]imidazo[1,2-a]pyrazin-8-yl]amino]-2-methyl-benzoyl]-N-methylsulfonyl-piperidine-4-carboxamide trifluoroacetate [Example 100] | 1600
2 | CO[C@@H]1CNC[C@H]1NC(=O)N1CCN(C(=O)c2ccc(Nc3nccn4c(-c5ccc(OC(F)F)cc5)cnc34)cc2C)CC1 (racemic) [Example 171, 4-[4-[[3-[4-(difluoromethoxy)phenyl]imidazo[1,2-a]pyrazin-8-yl]amino]-2-methyl-benzoyl]-N-[rac-(3R,4R)-4-methoxypyrrolidin-3-yl]piperazine-1-carboxamide hydrochloride] | 190
3 | COc1ccc(-c2cnc3c(Nc4ccc(C(=O)N5CCN(C(=O)[C@H]6CCNC[C@H]6O)CC5)c(C)c4)nccn23)c(F)c1F (racemic) [Example 195, [4-[[3-(2,3-difluoro-4-methoxy-phenyl)imidazo[1,2-a]pyrazin-8-yl]amino]-2-methyl-phenyl]-[4-[rac-(3S,4S)-3-hydroxypiperidine-4-carbonyl]piperazin-1-yl]methanone] | 290
4 | CCc1cc(Nc2nccn3c(-c4ccc(OCC#N)c(F)c4F)cnc23)ccc1C(=O)N1CCN(C(=O)[C@H]2CCNC[C@H]2O)CC1 (racemic) [Example 199, 2-[4-[8-[3-ethyl-4-[4-[rac-(3S,4S)-3-hydroxypiperidine-4-carbonyl]piperazine-1-carbonyl]anilino]imidazo[1,2-a]pyrazin-3-yl]-2,3-difluoro-phenoxy]acetonitrile formate] | 180
5 | Cc1cc(Nc2nccn3c(-c4ccc(OC(F)F)cc4)cnc23)ccc1C(=O)N1CC[C@@H](C(=O)N2CCNCC2)[C@H](O)C1 (racemic) [Example 438, [4-[[3-[4-(difluoromethoxy)phenyl]imi-dazo[1,2-a]pyrazin-8-yl]amino]-2-methylphenyl]-[rac-(3R,4S)-3-hydroxy-4-(piperazine-1-carbonyl)piperidin-1-yl]methanone; 2,2,2-trifluoroacetic acid] | 830
6 | COc1ccc(-c2cnc3c(Nc4ccc(C(=O)N5CC[C@@H](C(=O)N6CCNCC6)[C@H](O)C5)c(C)c4)nccn23)cc1F (racemic) [Example 440, [4-[[3-(3-fluoro-4-methoxyphenyl)imidazo[1,2-a]pyrazin-8-yl]amino]-2-methylphenyl]-[rac-(3R,4S)-3-hydroxy-4-(piperazine-1-carbonyl)piperidin-1-yl]methanone] | 950
7 | CNCCNC(=O)[C@@H]1CCN(C(=O)c2ccc(Nc3nccn4c(-c5ccc(OC)c(F)c5)cnc34)cc2C)C[C@H]1O (racemic) [Example 449, rac-(3R,4S)-1-[4-[[3-(3-fluoro-4-methoxyphenyl)imidazo[1,2-a]pyrazin-8-yl]amino]-2-methylbenozyl]-3-hydroxy-N-[2-(methylamino)ethyl]piperidin-4-carboxamide; 2,2,2-trifluoroacetic acid] | 2200
8 | Cc1cc(Nc2nccn3c(-c4ccc(OCC#N)c(F)c4F)cnc23)ccc1C(=O)N1CCN(C(=O)[C@@H]2CCNC[C@H]2O)CC1 (racemic) [Example 472, 2-[2,3-difluoro-4-[8-[3-methyl-4-[4-[rac-(3R,4S)-3-hydroxypiperidine-4-carbonyl]piperazine-1-carbonyl]anilino]imidazo[1,2-a]pyrazin-3-yl]phenoxy]acetonitrile; for-mic acid] | 230
9 | Cc1cc(Nc2nccn3c(-c4ccc(OC(F)F)cc4)cnc23)ccc1C(=O)N1CC[C@@H](C(=O)N2CCNCC2)[C@@H](O)C1 (racemic) [Example 530, [4-[[3-[4-(difluoromethoxy)phenyl]imi-dazo[1,2-a]pyrazin-8-yl]amino]-2-methylphenyl]-[rac-(3R,4R)-3-hydroxy-4-(piperazine-1-carbonyl)piperidin-1-yl]methanone; 2,2,2-trifluoroacetic acid] | 630
10 | COc1ccc(-c2cnc3c(Nc4ccc(C(=O)N5CCN(C(=O)C(CC(=O)O)NC(=O)[C@@H](N)CCCCN)CC5)c(C)c4)nccn23)c(F)c1F (mixture of isomers) [Example 534, 4-[4-[4-[[3-(2,3-difluoro-4-methoxyphenyl)imidazo[1,2-a]pyrazin-8-yl]amino]-2-methylbenzoyl]piperazin-1-yl]-4-oxo-3-[[rac-(2R)-2,6-diaminohexanoyl]amino]bu-tanoic acid; hydrochloride] | 2300
11 | COc1ccc(-c2cnc3c(Nc4ccc(C(=O)N5CCN(C(=O)C(CCC(=O)O)NC(=O)[C@@H](N)CCCCN)CC5)c(C)c4)nccn23)c(F)c1F (mixture of isomers) [Example 536, 5-[4-[4-[[3-(2,3-difluoro-4-methoxyphenyl)imidazo[1,2-a]pyrazin-8-yl]amino]-2-methylbenzoyl]piperazin-1-yl]-5-oxo-4-[[rac-(2R)-2,6-diaminohexanoyl]amino]pen-tanoic acid; hydrochloride] | 4100
12 | CCc1cc(Nc2nccn3c(-c4ccc(OC)c(F)c4F)cnc23)ccc1C(=O)N1CCN(C(=O)[C@@H]2CCNC[C@@H]2O)CC1 (racemic) [Example 547, [4-[[3-(2,3-difluoro-4-methoxyphenyl)imidazo[1,2-a]pyrazin-8-yl]amino]-2-ethylphenyl]-[4-[rac-(3R,4R)-3-hydroxypiperidine-4-carbonyl]piperazin-1-yl]methanone; hydrochloride] | 340
13 | Cc1cc(Nc2nccn3c(-c4ccc(OCC#N)c(F)c4F)cnc23)ccc1C(=O)N1CCN(C(=O)[C@@H]2CCNC[C@@H]2O)CC1 (relative stereo) [Example 196, 2-[2,3-difluoro-4-[8-[3-methyl-4-[4-[rac-(3R,4R)-3-hydroxypiperidine-4-carbonyl]piperazine-1-carbonyl]anilino]imidazo [1,2-a]pyrazin-3-yl]phenoxy] acetonitrile formate] | 270
14 | COc1ccc(-c2cnc3c(Nc4ccc(C(=O)N5CCN(C(=O)[C@@H]6CCNC[C@@H]6O)CC5)c(C)c4)nccn23)c(Cl)c1F (relative stereo) [Example 218, [4-[[3-(2-chloro-3-fluoro-4-methoxy-phenyl)imidazo[1,2-a]pyrazin-8-yl]amino]-2-methyl-phenyl]-[4-[(3R,4R)-3-hydroxypiperidine-4-carbonyl]piperazin-1-yl]methanone] | 220
15 | Cc1cc(Nc2nccn3c(-c4ccc(OC(F)F)cc4)cnc23)ccc1C(=O)N1CCC(C(=O)O)CC1 [Example 1, 1-(4-((3-(4-(difluoromethoxy)phenyl)imidazo[1,2-a]pyrazin-8-yl)amino)-2-methylbenzoyl)piperidine-4-carboxylic acid] | 1700
16 | COc1ccc(-c2cnc3c(Nc4ccc(C(=O)N5CCC(C(=O)O)CC5)c(C)c4)nccn23)cc1F [Example 2, 1-(4-((3-(3-fluoro-4-methoxyphenyl)imidazo[1,2-a]pyrazin-8-yl)amino)-2-methylbenzoyl)piperidine-4-carboxylic acid] | 1700
17 | Cc1cc(Nc2nccn3c(-c4ccc(OC(F)F)cc4)cnc23)ccc1C(=O)N1CCC(CCN)CC1 [Example 3, (4-(2-Aminoethyl)piperidin-1-yl)(4-((3-(4-(difluoromethoxy)phenyl)imidazo[1,2-a]pyrazin-8-yl)amino)-2-methylphenyl)methanone hydrochloride] | 110

Same assay, conditions: Acinetobacter baumannii, ATCC17978, 16 h, read-out: ATCC17978 IC90, 90% growth inhibitory concentration, Acinetobacter baumannii ATCC17978, Iso-Sensitest broth, OD 600 nm over 16 h

Row | Compound | IC90 [nM]
18 | Cc1cc(Nc2nccn3c(-c4ccc(OC(F)F)cc4)cnc23)ccc1C(=O)N1CCC(C(=O)N[C@@H]2C(O)O[C@H](CO)[C@@H](O)[C@@H]2O)CC1 (mixture of isomers) [Example 351, 1-[4-[[3-[4-(difluoromethoxy)phenyl]imi-dazo[1,2-a]pyrazin-8-yl]amino]-2-methylbenzoyl]-N-[rac-(3R,4S,5R,6S)-2,4,5-trihydroxy-6-(hydroxymethyl)oxan-3-yl]piperidine-4-carboxamide] | 720
19 | Cc1cc(Nc2nccn3c(-c4ccc(OC(F)F)cc4)cnc23)ccc1C(=O)N1CCC(C(=O)N2C[C@H](O)[C@@H](O)C2)CC1 (racemic) [Example 415, [4-[[3-[4-(difluoromthoxy)phenyl]imi-dazo[1,2-a]pyrazin-8-yl]amino]-2-methylphenyl]-[4-[rac-(3R,4R)-3,4-dihydroxypyrrolidine-1-carbonyl]piperidin-1-yl]methanone] | 780
20 | CNCCNC(=O)[C@@H]1CCN(C(=O)c2ccc(Nc3nccn4c(-c5ccc(OC)c(F)c5)cnc34)cc2C)C[C@@H]1O (racemic) [Example 439, rac-(3R,4R)-1-[4-[[3-(3-fluoro-4-methoxyphenyl)imidazo[1,2-a]pyrazin-8-yl]amino]-2-methylbenzoyl]-3-hydroxy-N-[2-(methyl-amino)ethyl]piperidine-4-carboxamide; 2,2,2-trifluoroacetic acid] | 910
21 | COc1ccc(-c2cnc3c(Nc4ccc(C(=O)N5CCN(C(=O)[C@H]6CCNC[C@@H]6O)CC5)c(C)c4)nccn23)c(F)c1F (racemic) [Example 489, [4-[[3-(2,3-difluoro-4-methoxyphenyl)imidazo[1,2-a]pyrazin-8-yl]amino]-2-methylphenyl]-[4-[rac-(3R,4S)-3-hydroxypiperidine-4-carbonyl]piperazin-1-yl]methanone; hydrochloride] | 270
22 | CCc1cc(Nc2nccn3c(-c4ccc(OCC#N)c(F)c4F)cnc23)ccc1C(=O)N1CCN(C(=O)[C@H]2CCNC[C@@H]2O)CC1 (racemic) [Example 498, 2-[4-[8-[3-ethyl-4-[4-[rac-(3R,4S)-3-hydroxypiperidine-4-carbonyl]piperazine-1-carbonyl]anilino]imidazo[1,2-a]pyrazin-3-yl]-2,3-difluorophenoxy]acetonitrile; formic acid] | 330
